Assay results published in ChEMBL document CHEMBL6103604, “Novel Bicyclic Amines as CDK2 Inhibitors for Treating Metastatic Breast Cancer or Metastatic Lung Cancer” (ACS Med Chem Lett, 2025).

These compounds were tested against Cyclin-dependent kinase 2/cyclin E1 (Homo sapiens, UniProt P24941) (assay: Inhibition of N-terminal GST-tagged wild-type full-length human CDK2 (1 to 298 residues)/FLAG-tagged human Cyclin E1 (1 to 410 residues) extracted from baculovirus infected Sf21 cells using ULight-labeled eIF4E-binding protein-1 as substrate incubated for 60 mins in the presence of ATP by HTRF assay).

IC50, ≤ 0.01 µM:
C[C@@H](Oc1c(-c2cn[nH]c2)ccn2nc(NC3CCOCC3)nc12)C(F)F, C[C@@H](Oc1c(-c2cn[nH]c2)ccn2nc(NC3CCOCC3)nc12)C(F)(F)F, CC(C)Oc1c(-c2cn[nH]c2)ccn2nc(NC3CCOCC3)nc12, CC(C)Oc1c(-c2cn[nH]c2)ncn2nc(NC3CCOCC3)nc12, C[C@@H](Oc1c(-c2cn[nH]c2)ncn2nc(NC3CCOCC3)nc12)C(F)F, C[C@@H](Oc1c(-c2cn[nH]c2)ncn2nc(NC3CCOCC3)nc12)C(F)(F)F
